Measured values published in US7618796B2, “Peptide-forming enzyme gene, peptide-forming enzyme, and peptide producing method” (Ajinomoto Co., Inc., priority 2001, dated 2009).
Read-outs that look alike come from different tables or passages of the source. Blank lines part the entries; values can stand above or below the compound they belong to. Residues, ends and D or L forms follow the SMILES beside them.

What was measured:
[1] = test system: Pseudomonas putida strain FERM BP-8101; details: substrate solution with 20 mM EDTA, 200 mM L-alanine ethyl ester hydrochloride, 400 mM L-glutamine, pH 9.0, 1 hour, 30° C.; 4.9 mM with no EDTA
Description: However, the present invention is not limited to these examples.

[2] = target: proline iminopeptidase of Bacillus coagulans strain EK01 (Heyndrickxia coagulans, UniProt P46541); assay: Effect of inhibitors on L-alanyl-L-glutamine synthesis; format: biochemical; details: 1 mM inhibitor, 30 minutes, 30° C.
Chain of proline iminopeptidase of Bacillus coagulans strain EK01 (P46541 whole entry): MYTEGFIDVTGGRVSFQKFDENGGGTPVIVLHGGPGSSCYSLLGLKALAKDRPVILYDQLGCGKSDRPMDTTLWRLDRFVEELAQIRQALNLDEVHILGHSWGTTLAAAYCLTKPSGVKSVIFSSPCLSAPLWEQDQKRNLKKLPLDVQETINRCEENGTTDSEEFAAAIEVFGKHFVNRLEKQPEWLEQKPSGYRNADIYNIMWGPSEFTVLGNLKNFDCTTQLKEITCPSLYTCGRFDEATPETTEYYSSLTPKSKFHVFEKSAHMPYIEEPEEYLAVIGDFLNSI

[3] = test system: proline iminopeptidase of Pseudomonas putida strain ATCC 12633; assay: as above; format: biochemical; details: 1 mM inhibitor, 30 minutes, 30° C.
Protocol: The effects of inhibitors on acquired proline iminopeptidase were investigated. The enzyme reaction was carried out for 30 minutes at 30° C. with a reaction solution consisting of 0.1 M borate buffer (pH 9.0), 10 mM EDTA, 100 mM L-alanine methyl ester hydrochloride, 150 mM L-glutamine and 1 mM inhibitor, followed by measurement of L-alanyl-L-glutamine synthesis. […] The activity was not affected by any of the inhibitors investigated for Corynebacterium glutamicum strain ATCC 13286.

[4] = test system: proline iminopeptidase of Pseudomonas putida strain FERM BP-8123; assay: as above; format: biochemical; details: 1 mM inhibitor, 30 minutes, 30° C.
[5] = test system: Pseudomonas putida strain FERM BP-8101; assay: Dipeptide production from test L-alanine esters / L-amino acids by cell suspension; format: cell-based; details: 20 mM EDTA, pH 9.0, 1 hour, 30° C.; for L-alanyl-L-glutamine produced: test L-alanine ester hydrochloride 200 mM with L-glutamine 400 mM; for L-alanyl dipeptide produced: L-alanine methyl ester hydrochloride 200 mM with test L-amino acid 400 mM
Protocol: Note that in the examples, quantitative determination of L-alanine, L-alanyl-L-glutamine or L-alanyl-L-asparagine was carried out by a method using high performance liquid chromatography (column: Inertsil ODS-2 (GL Science), eluate: aqueous phosphate solution (pH 2.2, 5.0 mM sodium 1-octane sulfonate/methanol=100/15), flow rate: 1.0 mL/min, detection: 210 nm).

[6] = test system: His-Tag purified peptide-forming enzyme of Corynebacterium glutamicum strain ATCC 13286; assay: Study of substrate specificity using His-Tag purified enzyme; format: biochemical; details: 25° C.; for quantity of L-alanyl dipeptide produced from L-alanine methyl ester and test amino acid: 100 mM L-alanine methyl ester hydrochloride, 150 mM test amino acid; for quantity of L-alanyl dipeptide produced from L-alanine methyl ester and test amino acid / quantity of dipeptide produced from test amino acid methyl ester and L-glutamine: enzyme 0.05 U/ml, pH 9.0, 3 hours; for quantity of dipeptide produced from test amino acid methyl ester and L-glutamine / production of peptide of the corresponding amino acid and L-glutamine (not quantified): 100 mM test amino acid methyl ester, 150 mM L-glutamine; for production of peptide of the corresponding amino acid and L-glutamine (not quantified): 3 hours, no standard preparation
Description: The synthesis of peptides other than the L-alanyl-L-glutamine by the acquired peptide-forming enzyme was studied using His-Tag purified enzyme. […]

[7] = test system: peptide-forming enzyme purified from Corynebacterium glutamicum strain ATCC 13286; assay: Dipeptide production by enzyme purified from Corynebacterium glutamicum; format: biochemical; details: 100 mM L-alanine methyl ester hydrochloride with 200 mM test L-amino acid, 2 units enzyme, 10 mM EDTA, pH 9.0, 4 hours, 30° C.
Protocol: This purified enzyme was then added to borate buffer (pH 9.0) containing EDTA, L-alanine methyl ester hydrochloride and L-glutamine (or L-asparagine), mixed to the total volume of 1 mL (for the final concentrations, the amount of enzyme added was 2 units as alanine amide decomposition activity, EDTA was at 10 mM, L-alanine methyl ester hydrochloride was at 100 mM and L-glutamine (or L-asparagine) was at 200 mM borate buffer at 100 mM), and allowed to react for 4 hours at 30° C.

[8] = Enzyme titer: L-alanine amide decomposition activity; format: biochemical; details: Tris-HCl pH 9.0, 60 minutes, 30° C.
Protocol: The specific activity of the purified enzyme was 9.841 U/mg, and the specific activity of the purified peptide-forming enzyme was increased about 246-fold as a result of going through these purification steps. In addition, as a result of applying the molecular weight of the purified enzyme standard to SDS polyacrylamide electrophoresis, a uniform band was detected at the position calculated to represent a molecular weight of 42,000 to 46,000. Measurement of enzyme titer was carried out as described below. 200 μM of Tris-HCl buffer (pH 9.0), 50 μM of L-alanine amide and a suitable amount of enzyme liquid were added and mixed to a final volume 1 mL, and after allowing to react for 60 minutes at 30° C., 4 mL of aqueous phosphoric acid (pH 2.1) was added to stop the reaction. The alanine produced was quantified by high-performance liquid chromatography, and the amount of enzyme that produces 1 μM of L-alanine in 1 minute was defined as 1 unit.

Compound: O=C(O)CN(CCN(CC(=O)O)CC(=O)O)CC(=O)O [EDTA, ethylenediaminetetraacetic acid]
L-alanyl-L-glutamine produced [1]: 10.1 mM

Compound: NC(=O)CI [IAA, iodoacetoamide]
effect on enzyme activity [2]: decreased to certain extents
effect on enzyme activity [3]: decreased to certain extents
effect on enzyme activity [4]: decreased to certain extents

Compound: CCOC(=O)[C@H](C)N.Cl [L-alanine ethyl ester hydrochloride]
L-alanyl-L-glutamine produced [5]: 11.4 mM

Compound: COC(=O)[C@H](C)N.Cl [L-alanine methyl ester hydrochloride]
L-alanyl-L-glutamine produced [5]: 14.9 mM

Compound: C[C@H](N)C(=O)OC(C)(C)C.Cl [L-alanine-tert-butyl ester hydrochloride]
L-alanyl-L-glutamine produced [5]: 0.5 mM

quantity of L-alanyl dipeptide produced from L-alanine methyl ester and test amino acid [6]: 10.63 mM
Compound: C[C@H](N)C(=O)O [L-alanine]

quantity of dipeptide produced from test amino acid methyl ester and L-glutamine [6]: 6.52 mM
Compound: COC(=O)[C@@H](N)CCCNC(=N)N [L-arginine methyl ester]

Compound: N=C(N)NCCC[C@H](N)C(=O)O [L-arginine]
quantity of L-alanyl dipeptide produced from L-alanine methyl ester and test amino acid [6]: 24.87 mM

production of peptide of the corresponding amino acid and L-glutamine (not quantified) [6]: confirmed to be produced
Compound: COC(=O)[C@@H](N)CC(N)=O [L-asparagine methyl ester]

amount of L-alanyl dipeptide produced [7]: 49.8 mM
quantity of L-alanyl dipeptide produced from L-alanine methyl ester and test amino acid [6]: 22.34 mM
Compound: NC(=O)C[C@H](N)C(=O)O [L-asparagine]
L-alanyl dipeptide produced [5]: 4.8 mM

production of peptide of the corresponding amino acid and L-glutamine (not quantified) [6]: confirmed to be produced
Compound: COC(=O)C[C@H](N)C(=O)OC [L-aspartic acid-α,β-dimethyl ester]

quantity of dipeptide produced from test amino acid methyl ester and L-glutamine [6]: 8.22 mM
Compound: COC(=O)[C@@H](N)CC(=O)O [L-aspartic acid-α-methyl ester]

production of peptide of the corresponding amino acid and L-glutamine (not quantified) [6]: confirmed to be produced
Compound: COC(=O)C[C@H](N)C(=O)O [L-aspartic acid-β-methyl ester]

quantity of L-alanyl dipeptide produced from L-alanine methyl ester and test amino acid [6]: 1.11 mM
Compound: N[C@@H](CCC(=O)O)C(=O)O [L-glutamate]

production of peptide of the corresponding amino acid and L-glutamine (not quantified) [6]: confirmed to be produced
Compound: COC(=O)CC[C@H](N)C(=O)O [L-glutamic acid-γ-methyl ester]

quantity of dipeptide produced from test amino acid methyl ester and L-glutamine [6]: 0.23 mM
Compound: COC(=O)[C@@H](N)CCC(N)=O [L-glutamine methyl ester]

amount of L-alanyl dipeptide produced [7]: 50.2 mM
Compound: NC(=O)CC[C@H](N)C(=O)O [L-glutamine]
L-alanyl dipeptide produced [5]: 12.7 mM

quantity of L-alanyl dipeptide produced from L-alanine methyl ester and test amino acid [6]: 23.16 mM
Compound: N[C@@H](Cc1c[nH]cn1)C(=O)O [L-histidine]

quantity of dipeptide produced from test amino acid methyl ester and L-glutamine [6]: 0.59 mM
Compound: CC[C@H](C)[C@H](N)C(=O)N[C@@H](CCC(N)=O)C(=O)O [L-isoleucyl-L-glutamine] (H-Ile-Gln-OH)

production of peptide of the corresponding amino acid and L-glutamine (not quantified) [6]: confirmed to be produced
Compound: COC(=O)[C@@H](N)CC(C)C [L-leucine methyl ester]

quantity of L-alanyl dipeptide produced from L-alanine methyl ester and test amino acid [6]: 13.73 mM
Compound: CC(C)C[C@H](N)C(=O)O [L-leucine]

production of peptide of the corresponding amino acid and L-glutamine (not quantified) [6]: confirmed to be produced
Compound: COC(=O)[C@@H](N)CCCCN [L-lysine methyl ester]

Compound: NCCCC[C@H](N)C(=O)O [L-lysine]
quantity of L-alanyl dipeptide produced from L-alanine methyl ester and test amino acid [6]: 7.91 mM

quantity of dipeptide produced from test amino acid methyl ester and L-glutamine [6]: 4.31 mM
Compound: COC(=O)[C@@H](N)CCSC [L-methionine methyl ester]

quantity of L-alanyl dipeptide produced from L-alanine methyl ester and test amino acid [6]: 48.80 mM
Compound: CSCC[C@H](N)C(=O)O [L-methionine]

quantity of L-alanyl dipeptide produced from L-alanine methyl ester and test amino acid [6]: 16.13 mM
Compound: N[C@@H](Cc1ccccc1)C(=O)O [L-phenylalanine]

quantity of L-alanyl dipeptide produced from L-alanine methyl ester and test amino acid [6]: 1.02 mM
Compound: O=C(O)[C@@H]1CCCN1 [L-proline]

quantity of dipeptide produced from test amino acid methyl ester and L-glutamine [6]: 40.44 mM
Compound: COC(=O)[C@@H](N)CO [L-serine methyl ester]

quantity of L-alanyl dipeptide produced from L-alanine methyl ester and test amino acid [6]: 26.14 mM
Compound: N[C@@H](CO)C(=O)O [L-serine]

quantity of dipeptide produced from test amino acid methyl ester and L-glutamine [6]: 3.85 mM
Compound: COC(=O)[C@@H](N)[C@@H](C)O [L-threonine methyl ester]

quantity of L-alanyl dipeptide produced from L-alanine methyl ester and test amino acid [6]: 24.23 mM
Compound: C[C@@H](O)[C@H](N)C(=O)O [L-threonine]

Compound: N[C@@H](Cc1c[nH]c2ccccc12)C(=O)O [L-tryptophan]
quantity of L-alanyl dipeptide produced from L-alanine methyl ester and test amino acid [6]: 15.31 mM

quantity of dipeptide produced from test amino acid methyl ester and L-glutamine [6]: 1.24 mM
Compound: COC(=O)[C@@H](N)Cc1ccc(O)cc1 [L-tyrosine methyl ester]

quantity of L-alanyl dipeptide produced from L-alanine methyl ester and test amino acid [6]: 0.96 mM
Compound: N[C@@H](Cc1ccc(O)cc1)C(=O)O [L-tyrosine]

quantity of dipeptide produced from test amino acid methyl ester and L-glutamine [6]: 5.94 mM
Compound: COC(=O)[C@@H](N)C(C)C [L-valine methyl ester]

Compound: CCN1C(=O)C=CC1=O [NEM, N-ethylmaleimide]
effect on enzyme activity [2]: nearly completely inhibited
effect on enzyme activity [3]: nearly completely inhibited
effect on enzyme activity [4]: nearly completely inhibited

Compound: O=S(=O)(F)Cc1ccccc1 [PMSF, phenyl methyl sulfonyl fluoride]
effect on enzyme activity [2]: did not have an effect
effect on enzyme activity [3]: did not have an effect
effect on enzyme activity [4]: did not have an effect

quantity of dipeptide produced from test amino acid methyl ester and L-glutamine [6]: 52.19 mM
Compound: COC(=O)CN [glycine methyl ester]

quantity of L-alanyl dipeptide produced from L-alanine methyl ester and test amino acid [6]: 5.66 mM
Compound: NCC(=O)O [glycine]

Compound: peptide-forming enzyme purified from Corynebacterium glutamicum strain ATCC 13286: native enzyme purified to uniformity; amino acid sequence SEQ ID NO: 5
specific activity (L-alanine amide decomposition) [8]: 9.841 U/mg
